Measurements: patent US6914045B2, “Glycopeptide antibiotics” (Wyeth Holdings Corporation, priority 2001, dated 2005)
≈ marks a conversion by molar mass, not a printed value.

Columns and labels:
Assay in all cases: in vitro antibacterial evaluation, MIC by broth dilution
Type in all cases: cell-based
[1] = test system: Enterococcus sp.; settings: broth dilution, 18 hours at 35° C.
In short: (§1)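 Broth dilution per NCCLS standard M7-A2 in Muller-Hinton II […], with an inoculum of 5×10^5 CFU/mL and antibiotic spanning 64-0.06 μg/mL. The MIC is the lowest concentration that inhibits growth of the organism.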

[2] = test system: Staphylococcus sp.; settings: broth dilution, 18 hours at 35° C.; for MIC Staphylococcus aureus (GC 1131): strain GC 1131; for MIC Staphylococcus aureus (ATCC 29213): strain ATCC 29213; for MIC Staphylococcus aureus (GC 3051): strain GC 3051; for MIC Staphylococcus aureus (GC 3053): strain GC 3053; for MIC Staphylococcus aureus (GC 4541): strain GC 4541; for MIC Staphylococcus aureus (GC 4542): strain GC 4542; for MIC Staphylococcus aureus-SMITH (GC 4543): strain GC 4543; for MIC Staphylococcus aureus (GC 4544): strain GC 4544; for MIC Staphylococcus aureus (GC 4545): strain GC 4545; for MIC Staphylococcus haemolyticus (GC 4546): strain GC 4546; for MIC Coagulase Negative Staphylococcus (GC 4547): strain GC 4547; for MIC Coagulase Negative Staphylococcus (GC 4548): strain GC 4548; for MIC Coagulase Negative Staphylococcus (GC 4549): strain GC 4549; for MIC Coagulase Negative Staphylococcus (GC 4551): strain GC 4551
In short: as §1

[3] = test system: Streptococcus sp.; settings: broth dilution, 18 hours at 35° C.
In short: as §1

[4] = test system: Escherichia coli; settings: 18 hours at 35° C.

With `N=C1NCC(C(O)C2NC(=O)C(Cc3ccc(OC4OC(CO)C(OC5OC6COC(c7ccccc7)OC6C(O)C5O)C(O)C4O)cc3)NC(=O)C(CC3CCCCC3)NC(=O)CNC(=O)C(CO)NC(=O)C(C(O)C3CNC(=N)N3C3OC(CO)C(O)C(O)C3O)NC2=O)N1` (stereo not drawn) [Example 199] the “MIC Enterococcus avium (GC 4558)” value [1] was 2 µg/mL (≈ 1.45 µM), the “MIC Enterococcus faecalis (ATCC 29212)” value [1] was 4 µg/mL (≈ 2.91 µM) and the “MIC Enterococcus faecalis (GC 2242)” value [1] was 2 µg/mL (≈ 1.45 µM). The “MIC Enterococcus faecalis (GC 2691)” value [1] was 4 µg/mL (≈ 2.91 µM), the “MIC Enterococcus faecalis (GC 3059)” value [1] was 4 µg/mL (≈ 2.91 µM) and the “MIC Enterococcus faecalis (GC 4552)” value [1] was 4 µg/mL (≈ 2.91 µM). The “MIC Enterococcus faecalis (GC 4553)” value [1] was 4 µg/mL (≈ 2.91 µM), the “MIC Enterococcus faecalis (GC 4554)” value [1] was 4 µg/mL (≈ 2.91 µM) and the “MIC Enterococcus faecalis (GC 6189)” value [1] was 2 µg/mL (≈ 1.45 µM). The “MIC Enterococcus faecium (GC 2243)” value [1] was 4 µg/mL (≈ 2.91 µM), the “MIC Enterococcus faecium (GC 4556)” value [1] was 4 µg/mL (≈ 2.91 µM) and the “MIC Enterococcus faecium (GC 4557)” value [1] was 2 µg/mL (≈ 1.45 µM). The “MIC Enterococcus faecalis (ATCC 29212)” value ([1]; inoculum 5×10^5 CFU/mL, strain ATCC 29212) was 4 µg/mL (≈ 2.91 µM), the “MIC Enterococcus faecalis (GC 2242)” value ([1]; inoculum 5×10^5 CFU/mL, strain GC 2242) was 2 µg/mL (≈ 1.45 µM) and the “MIC Enterococcus faecium (GC 2243)” value ([1]; inoculum 5×10^5 CFU/mL, strain GC 2243) was 4 µg/mL (≈ 2.91 µM). The “MIC Enterococcus faecalis (GC 2691)” value ([1]; inoculum 5×10^5 CFU/mL, strain GC 2691) was 4 µg/mL (≈ 2.91 µM), the “MIC Enterococcus faecalis (GC 3059)” value ([1]; inoculum 5×10^5 CFU/mL, strain GC 3059) was 4 µg/mL (≈ 2.91 µM) and the “MIC Enterococcus faecalis (GC 4552)” value ([1]; inoculum 5×10^5 CFU/mL, strain GC 4552) was 4 µg/mL (≈ 2.91 µM). The “MIC Enterococcus faecalis (GC 4553)” value ([1]; inoculum 5×10^5 CFU/mL, strain GC 4553) was 4 µg/mL (≈ 2.91 µM), the “MIC Enterococcus faecalis (GC 4554)” value ([1]; inoculum 5×10^5 CFU/mL, strain GC 4554) was 4 µg/mL (≈ 2.91 µM) and the “MIC Enterococcus faecium (GC 4556)” value ([1]; inoculum 5×10^5 CFU/mL, strain GC 4556) was 4 µg/mL (≈ 2.91 µM). The “MIC Enterococcus faecium (GC 4557)” value ([1]; inoculum 5×10^5 CFU/mL, strain GC 4557) was 2 µg/mL (≈ 1.45 µM), the “MIC Enterococcus avium (GC 4558)” value ([1]; inoculum 5×10^5 CFU/mL, strain GC 4558) was 2 µg/mL (≈ 1.45 µM) and the “MIC Enterococcus faecalis (GC 6189)” value ([1]; inoculum 5×10^5 CFU/mL, strain GC 6189) was 2 µg/mL (≈ 1.45 µM). The “MIC Staphylococcus aureus (GC 1131)” value ([2]; inoculum 5×10^5 CFU/mL) was 2 µg/mL (≈ 1.45 µM), the “MIC Staphylococcus aureus (ATCC 29213)” value [2] was 2 µg/mL (≈ 1.45 µM) and the “MIC Staphylococcus aureus (GC 1131)” value [2] was 2 µg/mL (≈ 1.45 µM). The “MIC Staphylococcus aureus (GC 3051)” value [2] was 1 µg/mL (≈ 0.727 µM), the “MIC Staphylococcus aureus (GC 3053)” value [2] was 2 µg/mL (≈ 1.45 µM) and the “MIC Staphylococcus aureus (GC 4541)” value [2] was 2 µg/mL (≈ 1.45 µM). For the same compound, the “MIC Staphylococcus aureus (GC 4542)” value [2] was 1 µg/mL (≈ 0.727 µM), the “MIC Staphylococcus aureus-SMITH (GC 4543)” value [2] was 1 µg/mL (≈ 0.727 µM) and the “MIC Staphylococcus aureus (GC 4544)” value [2] was 2 µg/mL (≈ 1.45 µM). For the same compound, the “MIC Staphylococcus aureus (GC 4545)” value [2] was 1 µg/mL (≈ 0.727 µM), the “MIC Staphylococcus haemolyticus (GC 4546)” value [2] was 1 µg/mL (≈ 0.727 µM) and the “MIC Coagulase Negative Staphylococcus (GC 4547)” value [2] was 2 µg/mL (≈ 1.45 µM). The “MIC Coagulase Negative Staphylococcus (GC 4548)” value [2] was 0.5 µg/mL (≈ 0.364 µM), the “MIC Coagulase Negative Staphylococcus (GC 4549)” value [2] was 0.5 µg/mL (≈ 0.364 µM) and the “MIC Coagulase Negative Staphylococcus (GC 4551)” value [2] was 1 µg/mL (≈ 0.727 µM). The “MIC Streptococcus agalactiae (GC 4564)” value [3] was <0.12 µg/mL, the “MIC Streptococcus pneumoniae (ATCC 6301)” value [3] was <0.12 µg/mL and the “MIC Streptococcus pneumoniae (GC 1894)” value [3] was <0.12 µg/mL. For the same compound, the “MIC Streptococcus pneumoniae (GC 4565)” value [3] was <0.12 µg/mL, the “MIC Streptococcus pyogenes (GC 4563)” value [3] was <0.12 µg/mL and the “MIC Streptococcus pneumoniae (ATCC 6301)” value ([3]; inoculum 5×10^5 CFU/mL, strain ATCC 6301) was <0.12 µg/mL. The “MIC Streptococcus pneumoniae (GC 1894)” value ([3]; inoculum 5×10^5 CFU/mL, strain GC 1894) was <0.12 µg/mL, the “MIC Streptococcus pyogenes (GC 4563)” value ([3]; inoculum 5×10^5 CFU/mL, strain GC 4563) was <0.12 µg/mL and the “MIC Streptococcus agalactiae (GC 4564)” value ([3]; inoculum 5×10^5 CFU/mL, strain GC 4564) was <0.12 µg/mL. For the same compound, the “MIC Streptococcus pneumoniae (GC 4565)” value ([3]; inoculum 5×10^5 CFU/mL, strain GC 4565) was <0.12 µg/mL, the “MIC Escherichia coli (ATCC 25922)” value [4] was 64 µg/mL (≈ 46.5 µM) and the “MIC Escherichia coli (GC 4559)” value [4] was 32 µg/mL (≈ 23.3 µM). The “MIC Escherichia coli (GC 4560)” value [4] was 1 µg/mL (≈ 0.727 µM).

`CC(c1ccccc1)C1NC(=O)CNC(=O)C(CO)NC(=O)C(C(O)C2CNC(=N)N2C2OC(CO)C(O)C(O)C2O)NC(=O)C(C(O)C2CNC(=N)N2)NC(=O)C(Cc2ccc3oc(-c4cccc(F)c4)nc3c2)NC1=O` (stereo not drawn) [Example 30, Cyclo[3-[2-(3-fluorophenyl)-1,3-benzoxazol-5-yl]alanyl-3-(2-iminoimidazolidin-4-yl)seryl-3-(3-hexopyranosyl-2-iminoimidazolidin-4-yl)serylserylglycyl-β-methylphenylalanyl]] was tested, and the “MIC Enterococcus faecalis (ATCC 29212)” value ([1]; strain ATCC 29212) was 64 µg/mL (≈ 58.7 µM), the “MIC Enterococcus faecalis (GC 2242)” value ([1]; strain GC 2242) was 32 µg/mL (≈ 29.4 µM) and the “MIC Enterococcus faecium (GC 2243)” value ([1]; strain GC 2243) was 32 µg/mL (≈ 29.4 µM). The “MIC Enterococcus faecalis (GC 2691)” value ([1]; strain GC 2691) was 32 µg/mL (≈ 29.4 µM), the “MIC Enterococcus faecalis (GC 3059)” value ([1]; strain GC 3059) was 64 µg/mL (≈ 58.7 µM) and the “MIC Enterococcus faecalis (GC 4552)” value ([1]; strain GC 4552) was 64 µg/mL (≈ 58.7 µM). For the same compound, the “MIC Enterococcus faecalis (GC 4553)” value ([1]; strain GC 4553) was 16 µg/mL (≈ 14.7 µM), the “MIC Enterococcus faecalis (GC 4554)” value ([1]; strain GC 4554) was 64 µg/mL (≈ 58.7 µM) and the “MIC Enterococcus faecium (GC 4556)” value ([1]; strain GC 4556) was 64 µg/mL (≈ 58.7 µM). The “MIC Enterococcus faecium (GC 4557)” value ([1]; strain GC 4557) was 8 µg/mL (≈ 7.34 µM), the “MIC Enterococcus avium (GC 4558)” value ([1]; strain GC 4558) was 16 µg/mL (≈ 14.7 µM) and the “MIC Enterococcus faecalis (GC 6189)” value ([1]; strain GC 6189) was 32 µg/mL (≈ 29.4 µM). For the same compound, the “MIC Staphylococcus aureus (ATCC 29213)” value [2] was 8 µg/mL (≈ 7.34 µM), the “MIC Staphylococcus aureus (GC 1131)” value [2] was 8 µg/mL (≈ 7.34 µM) and the “MIC Staphylococcus aureus (GC 3051)” value [2] was 16 µg/mL (≈ 14.7 µM). The “MIC Staphylococcus aureus (GC 3053)” value [2] was 16 µg/mL (≈ 14.7 µM), the “MIC Staphylococcus aureus (GC 4541)” value [2] was 16 µg/mL (≈ 14.7 µM) and the “MIC Staphylococcus aureus (GC 4542)” value [2] was 8 µg/mL (≈ 7.34 µM). For the same compound, the “MIC Staphylococcus aureus-SMITH (GC 4543)” value [2] was 8 µg/mL (≈ 7.34 µM), the “MIC Staphylococcus aureus (GC 4544)” value [2] was 8 µg/mL (≈ 7.34 µM) and the “MIC Staphylococcus aureus (GC 4545)” value [2] was 8 µg/mL (≈ 7.34 µM). For the same compound, the “MIC Staphylococcus haemolyticus (GC 4546)” value [2] was 4 µg/mL (≈ 3.67 µM), the “MIC Coagulase Negative Staphylococcus (GC 4547)” value [2] was 8 µg/mL (≈ 7.34 µM) and the “MIC Coagulase Negative Staphylococcus (GC 4548)” value [2] was 4 µg/mL (≈ 3.67 µM). For the same compound, the “MIC Coagulase Negative Staphylococcus (GC 4549)” value [2] was 16 µg/mL (≈ 14.7 µM), the “MIC Coagulase Negative Staphylococcus (GC 4551)” value [2] was 8 µg/mL (≈ 7.34 µM) and the “MIC Coagulase Negative Staphylococcus (GC 6257)” value ([2]; strain GC 6257) was 4 µg/mL (≈ 3.67 µM). The “MIC Streptococcus pneumoniae (ATCC 6301)” value ([3]; strain ATCC 6301) was 8 µg/mL (≈ 7.34 µM), the “MIC Streptococcus pneumoniae (GC 1894)” value ([3]; strain GC 1894) was 16 µg/mL (≈ 14.7 µM) and the “MIC Streptococcus pyogenes (GC 4563)” value ([3]; strain GC 4563) was 4 µg/mL (≈ 3.67 µM). For the same compound, the “MIC Streptococcus agalactiae (GC 4564)” value ([3]; strain GC 4564) was 8 µg/mL (≈ 7.34 µM), the “MIC Streptococcus pneumoniae (GC 4565)” value ([3]; strain GC 4565) was 16 µg/mL (≈ 14.7 µM) and the “MIC Escherichia coli (ATCC 25922)” value ([4]; strain ATCC 25922, broth dilution) was 32 µg/mL (≈ 29.4 µM). The “MIC Escherichia coli (GC 4559)” value ([4]; strain GC 4559, broth dilution) was 32 µg/mL (≈ 29.4 µM) and the “MIC Escherichia coli (GC 4560)” value ([4]; strain GC 4560, broth dilution) was 8 µg/mL (≈ 7.34 µM).
